What all share (format): cell-based
Experiment [1] has as its system Phospho-Rb (Ser807/811). The experiment can be described thus: Phospho-Retinoblastoma (pRB) Cellular Assay. The conditions noted are these: Homo sapiens, OVCAR-3, NIH OVCAR3 cells, 24 hours; for IC50: concentration giving 50% response; for Emax: maximum response, reference compound at 10 μM = 100%, read-out: pRB Ymax. In short, it runs like this: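 OVCAR3 cells seeded overnight, then dosed with serial dilutions for 24 h at 37° C. Lysed with kit mix plus phosphatase inhibitor, ≥4 h at room temperature, read on EnVision; 100% response set by reference compound at 10 μM, giving IC50 and Ymax.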

The target of experiment [2] is GSPT1 (Homo sapiens, UniProt P15170+Q96SW2). The experiment can be described thus: GSPT1 Cellular Degradation Assay (DF15-GSPT1-ePL). The following applies: DF15-GSPT1-ePL cells, 20 hours. Further details: expressed in transfected cells. The method in brief:
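Human DF15 cells co-expressing a GSPT1–ePL fusion were treated with compound in RPMI 1640/10% FBS for 20 h at 37 °C. GSPT1 level was read by enzyme-fragment-complementation luminescence after 60 min with detection reagent. The reference degrader at […] defined 75% response; DC50 and Dmax were reported.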

Experiment [3] has as its target Cyclin E1 (Homo sapiens, UniProt P24864+Q96SW2). As to the kind of experiment: Cyclin E1 Cellular Degradation Assay (MSD). The conditions noted are these: for DC50 / Dmax: Cyclin E1 cellular degradation; for Dmax: maximum degradation; for Ratio of GSPT1 DC50/Cyclin E1 DC50: selectivity for degradation of Cyclin E1 over GSPT1. Further details: endogenous in cells; host or cells: OVCAR3. In short, it runs like this: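 OVCAR3 cells treated with compound for 24 h at 37 °C, lysed, and cyclin E1 measured by MSD sandwich immunoassay (rabbit capture, mouse detection anti-CCNE1). Reference degrader at […] defined 110% response; DC50 and Dmax derived from response.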

We go through 12 molecules from patent US20250084056A1, “SUBSTITUTED OXOISOINDOLINYL PIPERIDINE-2,6-DIONE COMPOUNDS” (BRISTOL-MYERS SQUIBB COMPANY, priority 2023, published 2025).

The structures appear in SMILES notation.

Sequence of GSPT1 (P15170 whole entry, the tested form may be a part): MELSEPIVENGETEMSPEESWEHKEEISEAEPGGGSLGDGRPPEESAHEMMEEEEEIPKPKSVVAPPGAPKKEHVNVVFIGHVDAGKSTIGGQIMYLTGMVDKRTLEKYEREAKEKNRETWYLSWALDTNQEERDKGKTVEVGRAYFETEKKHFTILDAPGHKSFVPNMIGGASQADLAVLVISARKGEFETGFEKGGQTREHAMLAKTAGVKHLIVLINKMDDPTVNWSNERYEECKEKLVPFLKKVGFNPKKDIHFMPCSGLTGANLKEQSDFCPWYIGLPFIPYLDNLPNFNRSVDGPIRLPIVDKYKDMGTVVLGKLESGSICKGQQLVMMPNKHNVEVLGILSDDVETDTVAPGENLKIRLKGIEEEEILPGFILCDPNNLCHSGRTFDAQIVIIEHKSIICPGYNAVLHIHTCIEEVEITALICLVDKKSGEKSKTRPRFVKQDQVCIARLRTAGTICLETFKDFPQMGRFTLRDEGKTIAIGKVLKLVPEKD
Sequence of GSPT1 (Q96SW2 whole entry, the tested form may be a part): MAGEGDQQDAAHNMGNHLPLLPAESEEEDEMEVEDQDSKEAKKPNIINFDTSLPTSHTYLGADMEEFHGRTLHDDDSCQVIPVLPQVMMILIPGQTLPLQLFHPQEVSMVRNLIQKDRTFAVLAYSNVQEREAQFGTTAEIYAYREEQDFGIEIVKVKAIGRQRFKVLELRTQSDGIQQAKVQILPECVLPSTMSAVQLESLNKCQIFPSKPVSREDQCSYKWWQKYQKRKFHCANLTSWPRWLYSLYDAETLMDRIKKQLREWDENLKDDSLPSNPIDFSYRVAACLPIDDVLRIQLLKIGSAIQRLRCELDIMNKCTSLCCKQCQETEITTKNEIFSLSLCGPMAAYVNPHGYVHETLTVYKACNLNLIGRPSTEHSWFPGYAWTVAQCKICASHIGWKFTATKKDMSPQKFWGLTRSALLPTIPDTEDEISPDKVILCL
Sequence of GSPT1 (Q16531 whole entry partner, the tested form may be a part): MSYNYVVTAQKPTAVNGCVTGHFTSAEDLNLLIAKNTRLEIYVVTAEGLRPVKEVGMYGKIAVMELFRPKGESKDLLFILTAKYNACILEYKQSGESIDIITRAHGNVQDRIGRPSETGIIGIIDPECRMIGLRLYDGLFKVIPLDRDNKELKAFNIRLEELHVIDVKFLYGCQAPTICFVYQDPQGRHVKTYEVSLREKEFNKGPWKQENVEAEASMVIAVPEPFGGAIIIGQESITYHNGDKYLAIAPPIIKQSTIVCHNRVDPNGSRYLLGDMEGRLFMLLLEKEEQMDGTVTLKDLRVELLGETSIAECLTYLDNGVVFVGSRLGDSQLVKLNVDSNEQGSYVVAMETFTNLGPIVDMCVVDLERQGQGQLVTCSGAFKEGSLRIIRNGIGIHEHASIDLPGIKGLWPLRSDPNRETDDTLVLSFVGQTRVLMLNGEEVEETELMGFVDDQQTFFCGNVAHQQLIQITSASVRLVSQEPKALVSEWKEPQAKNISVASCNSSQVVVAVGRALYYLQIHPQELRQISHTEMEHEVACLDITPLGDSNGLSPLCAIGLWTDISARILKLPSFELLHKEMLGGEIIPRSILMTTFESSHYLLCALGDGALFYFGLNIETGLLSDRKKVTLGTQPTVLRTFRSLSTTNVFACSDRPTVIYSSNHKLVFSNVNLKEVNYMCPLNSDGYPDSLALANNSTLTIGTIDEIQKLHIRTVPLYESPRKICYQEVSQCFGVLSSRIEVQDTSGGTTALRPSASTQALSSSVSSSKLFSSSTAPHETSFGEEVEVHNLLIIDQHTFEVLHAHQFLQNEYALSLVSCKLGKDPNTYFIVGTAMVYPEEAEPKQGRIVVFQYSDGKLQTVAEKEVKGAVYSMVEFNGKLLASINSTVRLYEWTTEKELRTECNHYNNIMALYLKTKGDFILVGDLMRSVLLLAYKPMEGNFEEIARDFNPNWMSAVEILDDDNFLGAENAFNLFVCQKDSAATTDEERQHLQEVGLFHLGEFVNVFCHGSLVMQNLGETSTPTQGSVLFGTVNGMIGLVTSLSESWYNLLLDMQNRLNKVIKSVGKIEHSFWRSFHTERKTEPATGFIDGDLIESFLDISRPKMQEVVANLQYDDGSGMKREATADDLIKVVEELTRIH
Sequence of Cyclin E1 (P24864 whole entry): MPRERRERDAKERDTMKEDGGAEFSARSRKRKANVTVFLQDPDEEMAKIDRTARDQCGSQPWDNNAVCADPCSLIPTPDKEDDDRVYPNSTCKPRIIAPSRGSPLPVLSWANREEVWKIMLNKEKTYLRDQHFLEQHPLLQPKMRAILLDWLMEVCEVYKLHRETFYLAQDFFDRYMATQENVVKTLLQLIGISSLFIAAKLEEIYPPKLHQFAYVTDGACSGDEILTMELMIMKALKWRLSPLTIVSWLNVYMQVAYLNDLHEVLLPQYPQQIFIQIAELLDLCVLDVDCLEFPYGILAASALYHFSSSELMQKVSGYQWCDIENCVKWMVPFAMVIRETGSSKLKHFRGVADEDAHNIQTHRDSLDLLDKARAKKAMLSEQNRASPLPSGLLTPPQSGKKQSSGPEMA
Sequence of Cyclin E1 (Q96SW2 whole entry): as the sequence (Q96SW2 whole entry, the tested form may be a part) above
Sequence of Cyclin E1 (Q16531 whole entry partner): as the sequence (Q16531 whole entry partner, the tested form may be a part) above

A word on the IC50: it is the concentration that inhibits the measured activity by half. A lower IC50 goes with inhibition by little substance. What is called DC50 is the midpoint of the concentration-degradation curve. As usually defined, the Dmax is the greatest extent of degradation seen. `O=C1CCC(N2Cc3ccc(COC(=O)Nc4ccc(Oc5ccc(F)cc5F)cc4)c(Oc4ccccc4)c3C2=O)C(=O)N1` (stereo not drawn) [Example 67, [2-(2,6-dioxopiperidin-3-yl)-3-oxo-4-phenoxy-2,3-dihydro-1H-isoindol-5-yl]methyl N-[4-(2,4-difluorophenoxy)phenyl]carbamate]: in experiment [1], half-maximal inhibition (IC50) required 144 nM and the Emax was 127%. Also, in experiment [2], the DC50 is > 14000 nM and the Dmax turned out to be 10%. In addition, in experiment [3], the DC50 was determined as 112 nM, the Dmax was found to be 99% and the “Ratio of GSPT1 DC50/Cyclin E1 DC50” value was >125.
For the molecule `COc1cc(Oc2ccc(F)cc2C)ccc1NC(=O)OCc1ccc2c(c1OC)C(=O)N(C1CCC(=O)NC1=O)C2` (stereo not drawn) [Example 75, [2-(2,6-dioxopiperidin-3-yl)-4-methoxy-3-oxo-2,3-dihydro-1H-isoindol-5-yl]methyl N-[4-(4-fluoro-2-methylphenoxy)-2-methoxyphenyl]carbamate], in experiment [1], the IC50 stood at 287 nM and the Emax was determined as 120%. In experiment [2], the DC50 was > 14000 nM and the Dmax was 23%. Moreover, in experiment [3], it took 328 nM to reach half-maximal degradation (DC50), the Dmax is 109% and the “Ratio of GSPT1 DC50/Cyclin E1 DC50” value is >43.
For the molecule `O=C1CCC(N2Cc3ccc(COC(=O)Nc4ccc(Oc5ccc(F)c(F)c5)cc4)c(OC4CCCOCC4)c3C2=O)C(=O)N1` (stereo not drawn) [Example 170, [2-(2,6-dioxopiperidin-3-yl)-4-(oxepan-4-yloxy)-3-oxo-2,3-dihydro-1H-isoindol-5-yl]methyl N-[4-(3,4-difluorophenoxy)phenyl]carbamate], in experiment [1], the IC50 was 52 nM and the Emax turned out to be 142%. For the same molecule, in experiment [2], the DC50 is > 14000 nM and the Dmax stood at 0%. For the same molecule, in experiment [3], the DC50 was 15 nM, the Dmax was found to be 109% and the “Ratio of GSPT1 DC50/Cyclin E1 DC50” value is reported as >930.
As to `COc1c(COC(=O)Nc2ccc(Oc3ccc(F)c(C)c3)cc2)ccc2c1C(=O)N(C1CCC(=O)NC1=O)C2` (stereo not drawn) [Example 96, [2-(2,6-dioxopiperidin-3-yl)-4-methoxy-3-oxo-2,3-dihydro-1H-isoindol-5-yl]methyl N-[4-(4-fluoro-3-methylphenoxy)phenyl]carbamate], in experiment [1], 100 nM corresponded to half-maximal inhibition (IC50) and the Emax is 117%. Moreover, in experiment [2], the DC50 was > 14000 nM and the Dmax amounted to 27%. Besides, in experiment [3], the DC50 worked out at 129 nM, the Dmax was 106% and the “Ratio of GSPT1 DC50/Cyclin E1 DC50” value was >109.
Take `CC(C)Oc1c(COC(=O)Nc2ccc(Oc3ccccc3Cl)cc2)ccc2c1C(=O)N(C1CCC(=O)NC1=O)C2` (stereo not drawn) [Example 122, [2-(2,6-dioxopiperidin-3-yl)-3-oxo-4-(propan-2-yloxy)-2,3-dihydro-1H-isoindol-5-yl]methyl N-[4-(2-chlorophenoxy)phenyl]carbamate]: in experiment [1], inhibition was half-maximal at 54 nM (IC50) and the Emax is 122%. In experiment [2], the DC50 is > 14000 nM and the Dmax was 16%. Besides, in experiment [3], the DC50 was 61 nM, the Dmax is 106% and the “Ratio of GSPT1 DC50/Cyclin E1 DC50” value is recorded as >230.
As for `CC(C)Oc1c(COC(=O)Nc2ccc(Oc3ccccc3F)cc2)ccc2c1C(=O)N(C1CCC(=O)NC1=O)C2` (stereo not drawn) [Example 121, [2-(2,6-dioxopiperidin-3-yl)-3-oxo-4-(propan-2-yloxy)-2,3-dihydro-1H-isoindol-5-yl]methyl N-[4-(2-fluorophenoxy)phenyl]carbamate], in experiment [1], the IC50 was found to be 40 nM and the Emax was determined as 125%. In addition, in experiment [2], the DC50 was > 14000 nM and the Dmax turned out to be 9%. Moreover, in experiment [3], the DC50 was found to be 53 nM, the Dmax was determined as 107% and the “Ratio of GSPT1 DC50/Cyclin E1 DC50” value is on record as >263.
With `COC(=O)COc1c(COC(=O)Nc2ccc(Oc3ccc(F)c(F)c3)cc2)ccc2c1C(=O)N(C1CCC(=O)NC1=O)C2` (stereo not drawn) [Example 174, Methyl 2-({5-[({[4-(3,4-difluorophenoxy)phenyl]carbamoyl}oxy)methyl]-2-(2,6-dioxopiperidin-3-yl)-3-oxo-2,3-dihydro-1H-isoindol-4-yl}oxy)acetate], in experiment [1], the IC50 was found to be 473 nM and the Emax is 99%. In experiment [2], the DC50 was > 14000 nM and the Dmax was 16%. For the same molecule, in experiment [3], half-maximal degradation (DC50) was put at 204 nM, the Dmax is 100% and the “Ratio of GSPT1 DC50/Cyclin E1 DC50” value is listed as >69.
Consider `COc1cc(Oc2ccccc2C(F)F)ccc1NC(=O)OCc1ccc2c(c1OC)C(=O)N(C1CCC(=O)NC1=O)C2` (stereo not drawn) [Example 88, [2-(2,6-dioxopiperidin-3-yl)-4-methoxy-3-oxo-2,3-dihydro-1H-isoindol-5-yl]methyl N-{4-[2-(difluoromethyl)phenoxy]-2-methoxyphenyl}carbamate], for which, in experiment [1], half-maximal inhibition (IC50) was put at 227 nM and the Emax came out at 10%. In addition, in experiment [2], the DC50 is > 14000 nM and the Dmax was 30%. In experiment [3], it took 203 nM to reach half-maximal degradation (DC50), the Dmax turned out to be 104% and the “Ratio of GSPT1 DC50/Cyclin E1 DC50” value was >69.
`CC(C)Oc1c(COC(=O)Nc2ccc(Oc3ccc(F)c(F)c3)cc2)ccc2c1C(=O)N([C@H]1CCC(=O)NC1=O)C2` (single isomer, unassigned) [Example 125]: in experiment [1], 98 nM corresponded to half-maximal inhibition (IC50) and the Emax was found to be 138%. In addition, in experiment [2], the DC50 is > 14000 nM and the Dmax worked out at 7%. In experiment [3], half-maximal degradation (DC50) was put at 263 nM, the Dmax turned out to be 107% and the “Ratio of GSPT1 DC50/Cyclin E1 DC50” value was >53.
Take `CC(C)(O)COc1c(COC(=O)Nc2ccc(Oc3ccc(F)cc3F)cc2F)ccc2c1C(=O)N(C1CCC(=O)NC1=O)C2` (stereo not drawn) [Example 163, [2-(2,6-dioxopiperidin-3-yl)-4-(2-hydroxy-2-methylpropoxy)-3-oxo-2,3-dihydro-1H-isoindol-5-yl]methyl N-[4-(2,4-difluorophenoxy)-2-fluorophenyl]carbamate]: in experiment [1], half-maximal inhibition (IC50) was put at 112 nM and the Emax turned out to be 137%. In experiment [2], the DC50 was > 14000 nM and the Dmax is 7%. In experiment [3], the DC50 amounted to 15 nM, the Dmax was 110% and the “Ratio of GSPT1 DC50/Cyclin E1 DC50” value is recorded as >921.
Take `COc1c(COC(=O)Nc2ccc(Oc3ccc(F)c(Cl)c3)cc2)ccc2c1C(=O)N(C1CCC(=O)NC1=O)C2` (stereo not drawn) [Example 14, [2-(2,6-dioxopiperidin-3-yl)-4-methoxy-3-oxo-2,3-dihydro-1H-isoindol-5-yl]methyl N-[4-(3-chloro-4-fluorophenoxy)phenyl]carbamate]: in experiment [1], the IC50 was 363 nM and the Emax is 96%. Also, in experiment [2], the DC50 is > 14000 nM and the Dmax turned out to be 43%. Also, in experiment [3], the DC50 turned out to be 59 nM, the Dmax worked out at 108% and the “Ratio of GSPT1 DC50/Cyclin E1 DC50” value was >239.
As for `CC(C)(O)COc1c(COC(=O)Nc2ccc(Oc3ccccc3)cc2)ccc2c1C(=O)N(C1CCC(=O)NC1=O)C2` (stereo not drawn) [Example 160, [2-(2,6-dioxopiperidin-3-yl)-4-(2-hydroxy-2-methylpropoxy)-3-oxo-2,3-dihydro-1H-isoindol-5-yl]methyl N-(4-phenoxyphenyl)carbamate], in experiment [1], the IC50 is 131 nM and the Emax was 145%. Further, in experiment [2], the DC50 was > 14000 nM and the Dmax stood at 16%. Besides, in experiment [3], the DC50 amounted to 23 nM, the Dmax came to 98% and the “Ratio of GSPT1 DC50/Cyclin E1 DC50” value is on record as >615.
